ChEMBL document CHEMBL1201862, “PubChem BioAssay data set” (2004)
Calls of active or inactive are those of the source.

Assays:
[1] = inhibitors of SNCA 5'UTR-driven reporter translation, confirmation, H4 neuroglioma cells, luminescence (AID 1988); type: functional, cell-based
[2] = inhibitors of firefly luciferase expression or activity, dose response, H4 neuroglioma cells, luminescence (AID 1990); type: functional, cell-based
[3] = Luminescence Cell-Based Dose Response HTS to Identify Inhibitors of 5'UTR Stem-Loop Driven Prion Protein mRNA Translation in H4 Neuroglioblastoma Cells. [Related pubchem assays: 1827 (Project Summary), 1813 (Primary HTS)]; type: functional
[4] = Luminescence Cell-Based Dose Response HTS to Identify Activators of Luciferase Translation or Activity in H4 […] Cells. [Related pubchem assays: 1829 (Project Summary), 1814 (Primary HTS)]; type: functional
[5] = Luminescence Cell-Based Dose Confirmation HTS to Identify Activators of 5'UTR Stem-Loop Driven Alpha-Synuclein mRNA Translation in H4 Neuroglioblastoma Cells. [Related pubchem assays: 1829 (Project Summary), 1814 (Primary HTS)]; type: functional
H4 = test: Luminescence Cell-Based Dose Response HTS to Identify Activators of 5'UTR Stem-Loop Driven Prion Protein mRNA Translation in H4 Neuroglioblastoma Cells. [Related pubchem assays: 1829 (Project Summary), 1814 (Primary HTS)]; type: functional; conditions: Homo sapiens
INS1 = test: beta cell apoptosis inhibitors, cytokine rescue, dose response, luminescence, retest (AID 449756); type: functional, cell-based; conditions: Rattus norvegicus;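 note: cell death triggered by IL-1 beta plus TNF-alpha plus IFN-gamma mixture; protective hits raise ATP signal compared with cytokine alone wells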
[6] = target: T1, Rac GTPase-activating protein 1 (Homo sapiens, UniProt Q9H0H5); test: MgcRacGAP GTPase-activating activity inhibitors, confirmation, biochemical, ADP Hunter fluorescence, primary and confirmatory (AID 624330); type: functional
T1 sequence (Q9H0H5 whole entry): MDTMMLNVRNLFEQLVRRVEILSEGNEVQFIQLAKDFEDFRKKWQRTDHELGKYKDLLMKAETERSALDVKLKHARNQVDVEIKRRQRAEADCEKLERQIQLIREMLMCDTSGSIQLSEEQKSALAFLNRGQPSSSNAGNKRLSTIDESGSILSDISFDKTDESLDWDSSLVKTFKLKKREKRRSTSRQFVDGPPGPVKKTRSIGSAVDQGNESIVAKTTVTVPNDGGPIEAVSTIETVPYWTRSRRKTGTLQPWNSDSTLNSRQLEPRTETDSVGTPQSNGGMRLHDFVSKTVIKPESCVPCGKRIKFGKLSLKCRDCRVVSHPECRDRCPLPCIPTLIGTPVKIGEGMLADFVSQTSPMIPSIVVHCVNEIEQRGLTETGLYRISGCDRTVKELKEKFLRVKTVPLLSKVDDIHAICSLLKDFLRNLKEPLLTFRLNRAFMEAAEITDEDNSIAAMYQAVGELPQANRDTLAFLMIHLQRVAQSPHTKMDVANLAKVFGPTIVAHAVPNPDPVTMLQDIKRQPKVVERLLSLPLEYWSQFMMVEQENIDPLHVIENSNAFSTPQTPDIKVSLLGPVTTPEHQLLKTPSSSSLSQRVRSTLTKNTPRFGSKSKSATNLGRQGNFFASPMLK

Streptococcus = test: Group A Streptococcus viability loss, dose response, counter-screen for streptokinase expression inhibitor project, luminescence, BacTiterGlo (AID 1915); type: functional, organism-based;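 note: potency for reduction of bacterial viability or growth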
Streptokinase A = target: T2, Streptokinase A (Streptococcus pyogenes serotype M1, UniProt P10520); test: S. pyogenes streptokinase expression inhibitors, potency, dose response, plasminogen activation absorbance, OD405 (AID 1914); type: functional, Streptococcus pyogenes M1 GAS;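 note: secreted streptokinase activity via plasminogen activation per viability signal from cell pellet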
T2 sequence (P10520 whole entry): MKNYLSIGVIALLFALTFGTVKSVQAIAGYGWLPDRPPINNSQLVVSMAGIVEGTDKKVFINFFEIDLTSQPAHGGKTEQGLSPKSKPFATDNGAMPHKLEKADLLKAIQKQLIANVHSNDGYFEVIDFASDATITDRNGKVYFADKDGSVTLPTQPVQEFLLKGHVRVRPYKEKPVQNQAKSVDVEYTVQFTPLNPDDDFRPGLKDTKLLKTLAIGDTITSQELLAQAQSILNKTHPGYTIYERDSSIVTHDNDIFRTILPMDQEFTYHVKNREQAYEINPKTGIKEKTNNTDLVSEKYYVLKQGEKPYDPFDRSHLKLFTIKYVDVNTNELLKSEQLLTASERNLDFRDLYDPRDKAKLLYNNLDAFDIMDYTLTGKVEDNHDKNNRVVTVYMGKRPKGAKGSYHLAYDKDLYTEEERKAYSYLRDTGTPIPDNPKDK

[7] = test system: Streptococcus sp. 'group A'; test: growth inhibition of control SK(-) GAS strain, dose response, counter-screen for streptokinase expression inhibitor project, luminescence, kanamycin, BacTiterGlo, confirmation (AID 1900); type: functional, organism-based
Cytochrome P450 2C9 = Cytochrome P450 2C9 (Homo sapiens, UniProt P11712)
Cytochrome P450 2C19 = Cytochrome P450 2C19 (Homo sapiens, UniProt P33261); test: Cytochrome panel assay with activity outcomes. Panel member name: p450-cyp2c19 Compounds with AC50 equal or less than 10 uM are considered active; type: functional
[8] = HEp-2 cell cytotoxicity, dose response, cytotoxicity control for RSV inhibitor project, HTS (AID 2410); type: functional; conditions: human respiratory syncytial virus
Cytochrome P450 3A4 = Cytochrome P450 3A4 (Homo sapiens, UniProt P08684);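 note: CYP3A4 tested as one member of a cytochrome P450 panel screen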
[9] = target: T3, Corticotropin-releasing factor receptor 2/Corticotropin-releasing factor-binding protein (Homo sapiens, UniProt P24387+Q13324); test: activators of CRF receptor 2 with binding protein – uHTS hits, confirmation (AID 602473); type: functional; conditions: read-out: EC50_Mean
T3 sequence (Q13324 whole entry): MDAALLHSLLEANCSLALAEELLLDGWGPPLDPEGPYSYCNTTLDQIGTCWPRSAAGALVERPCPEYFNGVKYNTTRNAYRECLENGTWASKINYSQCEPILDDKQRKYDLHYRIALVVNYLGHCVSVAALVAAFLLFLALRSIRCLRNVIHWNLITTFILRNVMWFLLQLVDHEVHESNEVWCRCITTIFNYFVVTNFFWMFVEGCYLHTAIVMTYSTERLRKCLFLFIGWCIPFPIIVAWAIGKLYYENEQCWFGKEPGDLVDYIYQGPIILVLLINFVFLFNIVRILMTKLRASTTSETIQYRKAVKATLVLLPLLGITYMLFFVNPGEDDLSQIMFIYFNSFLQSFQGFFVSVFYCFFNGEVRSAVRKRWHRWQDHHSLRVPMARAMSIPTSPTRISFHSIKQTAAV
T3 sequence (P24387 whole entry): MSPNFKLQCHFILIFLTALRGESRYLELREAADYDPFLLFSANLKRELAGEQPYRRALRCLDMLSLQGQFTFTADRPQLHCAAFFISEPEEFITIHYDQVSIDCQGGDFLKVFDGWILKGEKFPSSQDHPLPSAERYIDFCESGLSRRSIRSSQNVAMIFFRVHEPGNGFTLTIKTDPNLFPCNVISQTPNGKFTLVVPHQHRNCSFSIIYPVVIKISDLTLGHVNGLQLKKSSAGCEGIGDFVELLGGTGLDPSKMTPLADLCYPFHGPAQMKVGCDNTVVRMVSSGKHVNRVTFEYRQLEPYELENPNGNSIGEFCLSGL

Cytochrome P450 1A2 = target: T4, Cytochrome P450 1A2 (Homo sapiens, UniProt P05177);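 note: PubChem cytochrome P450 panel assay, CYP1A2 panel member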
T4 sequence (P05177 whole entry): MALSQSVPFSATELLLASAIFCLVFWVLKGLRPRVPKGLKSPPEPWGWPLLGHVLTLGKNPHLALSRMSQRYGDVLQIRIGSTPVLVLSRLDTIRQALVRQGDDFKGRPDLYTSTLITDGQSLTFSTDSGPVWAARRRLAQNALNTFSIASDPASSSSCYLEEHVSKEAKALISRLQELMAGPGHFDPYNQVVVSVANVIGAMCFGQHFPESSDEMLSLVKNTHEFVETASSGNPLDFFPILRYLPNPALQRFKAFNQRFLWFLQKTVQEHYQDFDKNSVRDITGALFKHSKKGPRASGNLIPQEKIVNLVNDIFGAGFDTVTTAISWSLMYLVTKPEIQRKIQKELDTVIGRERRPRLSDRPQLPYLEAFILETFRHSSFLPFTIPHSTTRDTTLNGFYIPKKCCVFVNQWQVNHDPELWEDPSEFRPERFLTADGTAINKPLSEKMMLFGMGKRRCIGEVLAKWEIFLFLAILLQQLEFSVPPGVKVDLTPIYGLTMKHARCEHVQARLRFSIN

Cytochrome P450 2C19, sequence (P33261 whole entry): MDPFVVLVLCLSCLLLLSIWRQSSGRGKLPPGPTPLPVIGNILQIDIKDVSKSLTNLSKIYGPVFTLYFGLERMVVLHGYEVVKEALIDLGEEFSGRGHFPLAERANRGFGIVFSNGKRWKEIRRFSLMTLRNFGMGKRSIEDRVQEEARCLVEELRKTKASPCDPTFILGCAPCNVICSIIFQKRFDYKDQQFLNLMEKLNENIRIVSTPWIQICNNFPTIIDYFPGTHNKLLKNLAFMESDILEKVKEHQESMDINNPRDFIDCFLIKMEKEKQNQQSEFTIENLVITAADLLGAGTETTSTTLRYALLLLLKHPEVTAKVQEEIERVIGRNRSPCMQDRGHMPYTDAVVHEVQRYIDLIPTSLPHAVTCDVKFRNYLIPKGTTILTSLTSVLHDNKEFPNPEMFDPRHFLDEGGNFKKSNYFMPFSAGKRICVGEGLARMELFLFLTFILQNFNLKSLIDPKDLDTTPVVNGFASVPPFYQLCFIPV
Cytochrome P450 2C9, sequence (P11712 whole entry): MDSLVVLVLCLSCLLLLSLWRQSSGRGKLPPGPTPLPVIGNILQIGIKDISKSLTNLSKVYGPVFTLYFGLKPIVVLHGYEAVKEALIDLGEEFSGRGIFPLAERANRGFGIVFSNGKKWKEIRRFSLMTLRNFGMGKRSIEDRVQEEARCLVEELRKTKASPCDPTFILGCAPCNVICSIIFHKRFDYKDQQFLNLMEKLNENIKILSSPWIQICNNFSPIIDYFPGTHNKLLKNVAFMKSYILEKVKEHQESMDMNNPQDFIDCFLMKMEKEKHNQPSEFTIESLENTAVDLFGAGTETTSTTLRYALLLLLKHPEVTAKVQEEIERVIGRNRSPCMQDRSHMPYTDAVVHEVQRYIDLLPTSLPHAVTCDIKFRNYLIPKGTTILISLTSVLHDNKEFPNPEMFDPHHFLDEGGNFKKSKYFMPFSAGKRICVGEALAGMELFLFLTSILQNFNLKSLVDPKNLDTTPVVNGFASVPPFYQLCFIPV
Cytochrome P450 3A4, sequence (P08684 whole entry): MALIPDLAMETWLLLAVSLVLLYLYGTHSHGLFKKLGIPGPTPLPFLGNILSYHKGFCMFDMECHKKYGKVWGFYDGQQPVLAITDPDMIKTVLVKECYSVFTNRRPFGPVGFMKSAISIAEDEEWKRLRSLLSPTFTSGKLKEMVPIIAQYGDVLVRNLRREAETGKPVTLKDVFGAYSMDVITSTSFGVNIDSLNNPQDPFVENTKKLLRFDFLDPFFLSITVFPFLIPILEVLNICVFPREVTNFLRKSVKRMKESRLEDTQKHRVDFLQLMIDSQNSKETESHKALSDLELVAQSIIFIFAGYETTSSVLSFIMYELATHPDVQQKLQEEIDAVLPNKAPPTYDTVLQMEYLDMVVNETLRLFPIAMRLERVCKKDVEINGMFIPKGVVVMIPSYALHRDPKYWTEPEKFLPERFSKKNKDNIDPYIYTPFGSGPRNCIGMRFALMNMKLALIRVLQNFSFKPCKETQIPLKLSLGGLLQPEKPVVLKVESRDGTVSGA

Cc1cc(/C=C2/SC(=S)N(c3cccc(C(F)(F)F)c3)C2=O)c(C)n1-c1cccnc1
EC50 [1]: > 120 µM (not active)
EC50 [2]: > 120 µM (not active)
EC50 [3]: > 120 µM (not active)

CCc1ccc(C(=O)Nn2cnc3ccccc3c2=O)cc1
EC50 [4]: 26.8 µM (active)
EC50 [5]: 2.82 µM (active)
EC50 (H4): 0.887 µM (active)

Cc1ccc([N+](=O)[O-])c(OCCN2CCCCCC2)c1
AC50 (INS1): 4.9 µM (active)

Nc1ccc2c(c1)Nc1ccccc1CC2
IC50 [6]: 27.2 µM (active)

Fc1ccc(-c2csc3ncnc(N4CCc5ccccc5C4)c23)cc1
EC50 [1]: > 120 µM (not active)
EC50 (Streptococcus): > 50 µM (not active)
EC50 [2]: 23.6 µM (active)
EC50 (Streptokinase A): 6.92 µM (active)
EC50 [7]: 9.67 µM (active)
EC50 [3]: > 120 µM (not active)

Cc1cc2nnc(SCC(=O)N3CCN(c4ccccc4)CC3)n2c(N)n1
AC50 (Cytochrome P450 2C9): 25.1 µM (inconclusive)
AC50 (Cytochrome P450 2C19): inconclusive

O=C(/C=C/c1ccccc1)NC(=S)Nc1ccccc1O
EC50 [4]: 66.3 µM (active)
EC50 [5]: 0.387 µM (active)
EC50 (H4): 1.9 µM (active)

O=C(NCCc1ccccc1)c1ccccc1NC(=O)C1CCCCC1C(=O)O (stereo not drawn)
EC50 [4]: 17.9 µM (active)
EC50 [5]: 19.1 µM (active)
EC50 (H4): 5.14 µM (active)

CC(=O)Nc1ccc(Nc2nc(-c3cc4ccccc4oc3=O)cs2)cc1
EC50 [4]: 0.676 µM (active)
EC50 [5]: 0.397 µM (active)
EC50 (H4): 1.7 µM (active)

COc1ccc(CN(C)CCc2ccccn2)c(OC)c1OC
IC50 [6]: 134 µM (active)

O=C1N=C(N2CCOCC2)S/C1=C\c1ccccc1OS(=O)(=O)c1ccccc1
EC50 [1]: > 120 µM (not active)
EC50 [2]: 14.8 µM (active)
EC50 [3]: > 120 µM (not active)

COc1cc(CNc2ccc3[nH]c(O)nc3c2)ccc1OCc1cccc(C)c1
IC50 [6]: 236 µM (active)

COc1ccc(CC(=O)Nc2cc3oc4ccccc4c3cc2OC)cc1
CC50 [8]: > 50 µM (active)

COc1ccccc1N1CCN(C(=O)CSc2ncnc3c2cnn3-c2ccc(C)c(C)c2)CC1
EC50 [4]: 15.4 µM (active)
EC50 [5]: 39.4 µM (active)
EC50 (H4): 54.1 µM (active)

O=C(NCc1nnc(S)n1-c1ccccc1)c1ccc(S(=O)(=O)N2CCOCC2)cc1
AC50 (Cytochrome P450 2C9): 14.1 µM (inconclusive)
AC50 (Cytochrome P450 2C19; read-out: AC50): 25.1 µM (inconclusive)
AC50 (Cytochrome P450 3A4): 31.6 µM (inconclusive)

CCOC(=O)c1sc2nc(NC(=O)C3CC3)sc2c1C
EC50 [4]: 57.6 µM (active)
EC50 [5]: 10.8 µM (active)
EC50 (H4): 28.4 µM (inconclusive)

Cc1nc(N2CCN(S(=O)(=O)c3ccc(F)cc3)CC2)c2c(-c3cccs3)csc2n1
CC50 [8]: 16.8 µM (active)

CC1CC(c2ccccc2)=Nc2ccccc2N1 (stereo not drawn)
EC50 [4]: 10.6 µM (active)
EC50 [5]: 8.32 µM (active)
EC50 (H4): 43 µM (active)

COCC(C)NCc1ccc(OC)c(Br)c1 (stereo not drawn)
IC50 [6]: 167 µM (active)

COc1ccc(F)cc1C(=O)C1CCCN(C(=O)c2ccccc2N(C)C)C1 (stereo not drawn)
CC50 [8]: 28.1 µM (active)

Nc1c(C(=O)Nc2ccccc2Cl)nnn1-c1ccc2c(c1)OCCO2
EC50 (H4): > 120 µM (not active)

CCOC(=O)c1ccc(NC(=S)N2CCSC2c2ccc(Cl)cc2)cc1 (stereo not drawn)
CC50 [8]: 16.9 µM (active)
EC50 [9]: 4.71 µM (active)

CCOc1ccc(S(=O)(=O)N2CCCCC2)cc1NC(=O)CN1CCCC1c1cccs1 (stereo not drawn)
AC50 (INS1): 4.23 µM (active)

Cc1cc(C)c(OCCCCN(C)Cc2ccccc2)c(C)c1
IC50 [6]: 120 µM (active)

CCOC(=O)C(NC(=O)CC)(Nc1sc2c(c1C(=O)OC)CCN(C)C2)C(F)(F)F (stereo not drawn)
AC50 (Cytochrome P450 2C9): 15.8 µM (inconclusive)
AC50 (Cytochrome P450 1A2): 10 µM (inconclusive)
AC50 (Cytochrome P450 2C19; read-out: AC50): 2.51 µM (inconclusive)

CC/C(=N\CCc1c(C)[nH]c2ccccc12)C1=C(O)CC(c2ccccc2)CC1=O (stereo not drawn)
EC50 [1]: > 120 µM (not active)
EC50 [2]: > 30 µM (not active)
EC50 [3]: 11.7 µM (active)

C[C@H]1[C@@H](OC(=O)CCC(=O)O)O[C@@H]2OC3(C)CC[C@H]4[C@H](C)CC[C@@H]1[C@@]24OO3
EC50 [1]: > 120 µM (not active)
EC50 [2]: > 120 µM (not active)
EC50 [3]: > 120 µM (not active)

O=c1c(-c2cccc(Cl)c2)c[nH]n1-c1ccccc1
IC50 [6]: 59.6 µM (active)

CCCCOc1ccc(CNC(=S)N/N=C/c2ccc(OC)c(OC)c2)cc1
CC50 [8]: 41.2 µM (active)

COc1cc(/C=N/n2c(S)nnc2-c2cc(C)[nH]n2)cc(OC)c1O
IC50 [6]: 69.3 µM (active)

COC(=O)c1sccc1N/N=C/c1ccc(OC)c(OC)c1OC
EC50 [4]: 9.96 µM (active)
EC50 [5]: 87.4 µM (active)
EC50 (H4): 40.6 µM (active)

COc1ccc(/C=N/N2CCN(C)CC2)cc1O
IC50 [6]: 39.2 µM (active)

CCN(CC)c1ccc(/C=N/N(c2ccccc2)c2ccccc2)c(O)c1
AC50 (INS1): 5.2 µM (active)
